Measurements taken from PubChem BioAssay (NCI).
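Protocol summary: plate cells (96-well), add compound at 5 concentrations, incubate 48 h, interpolate endpoints linearly. TGI: total growth inhibition.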

Key:
Assay in all cases: growth of human tumour cells (NCI), 48 h
786-0 renal = test system: 786-0 renal
A498 renal = test system: A498 renal
A549 NSCLC = test system: A549 NSCLC
ACHN renal = test system: ACHN renal
CAKI-1 renal = test system: CAKI-1 renal
CCRF-CEM leukemia = test system: CCRF-CEM leukemia
COLO 205 colon = test system: COLO 205 colon
DU-145 prostate = test system: DU-145 prostate
EKVX NSCLC = test system: EKVX NSCLC
HCC-2998 colon = test system: HCC-2998 colon
HCT-116 colon = test system: HCT-116 colon
HCT-15 colon = test system: HCT-15 colon
HL-60(TB) leukemia = test system: HL-60(TB) leukemia
HOP-62 NSCLC = test system: HOP-62 NSCLC
HOP-92 NSCLC = test system: HOP-92 NSCLC
HS 578T breast = test system: HS 578T breast
HT29 colon = test system: HT29 colon
IGROV1 ovarian = test system: IGROV1 ovarian
K-562 leukemia = test system: K-562 leukemia
KM12 colon = test system: KM12 colon
LOX IMVI melanoma = test system: LOX IMVI melanoma
M14 melanoma = test system: M14 melanoma
MALME-3M melanoma = test system: MALME-3M melanoma
MCF7 breast = test system: MCF7 breast
MDA-MB-231 breast = test system: MDA-MB-231 breast
MDA-MB-435 = test system: MDA-MB-435
MDA-N = test system: MDA-N
MOLT-4 leukemia = test system: MOLT-4 leukemia
NCI-H226 lung = test system: NCI-H226 lung
NCI-H23 lung = test system: NCI-H23 lung
NCI-H460 lung = test system: NCI-H460 lung
NCI-H522 lung = test system: NCI-H522 lung
NCI/ADR-RES ovarian = test system: NCI/ADR-RES ovarian
OVCAR-3 ovarian = test system: OVCAR-3 ovarian
OVCAR-4 ovarian = test system: OVCAR-4 ovarian
OVCAR-8 ovarian = test system: OVCAR-8 ovarian
PC-3 prostate = test system: PC-3 prostate
RPMI-8226 leukemia = test system: RPMI-8226 leukemia
RXF 393 renal = test system: RXF 393 renal
SF-268 CNS = test system: SF-268 CNS
SF-295 CNS = test system: SF-295 CNS
SF-539 CNS = test system: SF-539 CNS
SK-MEL-2 melanoma = test system: SK-MEL-2 melanoma
SK-MEL-28 melanoma = test system: SK-MEL-28 melanoma
SK-MEL-5 melanoma = test system: SK-MEL-5 melanoma
SK-OV-3 ovarian = test system: SK-OV-3 ovarian
SN12C renal = test system: SN12C renal
SNB-19 CNS = test system: SNB-19 CNS
SNB-75 CNS = test system: SNB-75 CNS
SR leukemia = test system: SR leukemia
SW-620 colon = test system: SW-620 colon
T-47D breast = test system: T-47D breast
TK-10 renal = test system: TK-10 renal
U251 CNS = test system: U251 CNS
UACC-257 melanoma = test system: UACC-257 melanoma
UACC-62 melanoma = test system: UACC-62 melanoma
UO-31 renal = test system: UO-31 renal
OVCAR-5 ovarian = test system: OVCAR-5 ovarian

`Clc1ccc(Cl)c(N=Nc2cc3c4c(c2)CCCN4CCC3)c1` showed a TGI (786-0 renal) of over 10 µM, a TGI (A498 renal) of over 10 µM and a TGI (A549 NSCLC) of over 10 µM. For the same molecule, the TGI (ACHN renal) was over 10 µM, the TGI (CAKI-1 renal) was over 10 µM and the TGI (CCRF-CEM leukemia) was over 10 µM. It also gave a TGI (COLO 205 colon) of over 10 µM, a TGI (DU-145 prostate) of over 10 µM and a TGI (EKVX NSCLC) of over 10 µM. It also gave a TGI (HCC-2998 colon) of over 10 µM, a TGI (HCT-116 colon) of over 10 µM and a TGI (HCT-15 colon) of over 10 µM. The TGI (HL-60(TB) leukemia) was over 10 µM, the TGI (HOP-62 NSCLC) was over 10 µM and the TGI (HOP-92 NSCLC) was over 10 µM. For the same molecule, the TGI (HS 578T breast) was over 10 µM, the TGI (HT29 colon) was over 10 µM and the TGI (IGROV1 ovarian) was over 10 µM. It also gave a TGI (K-562 leukemia) of over 10 µM, a TGI (KM12 colon) of over 10 µM and a TGI (LOX IMVI melanoma) of over 10 µM. It also gave a TGI (M14 melanoma) of over 10 µM, a TGI (MALME-3M melanoma) of over 10 µM and a TGI (MCF7 breast) of over 10 µM. The TGI (MDA-MB-231 breast) was over 10 µM, the TGI (MDA-MB-435) was over 10 µM and the TGI (MDA-N) was over 10 µM. It also gave a TGI (MOLT-4 leukemia) of over 10 µM, a TGI (NCI-H226 lung) of over 10 µM and a TGI (NCI-H23 lung) of over 10 µM. It also gave a TGI (NCI-H460 lung) of over 10 µM, a TGI (NCI-H522 lung) of over 10 µM and a TGI (NCI/ADR-RES ovarian) of over 10 µM. For the same molecule, the TGI (OVCAR-3 ovarian) was over 10 µM, the TGI (OVCAR-4 ovarian) was over 10 µM and the TGI (OVCAR-8 ovarian) was over 10 µM. It also gave a TGI (PC-3 prostate) of over 10 µM, a TGI (RPMI-8226 leukemia) of over 10 µM and a TGI (RXF 393 renal) of over 10 µM. For the same molecule, the TGI (SF-268 CNS) was over 10 µM, the TGI (SF-295 CNS) was over 10 µM and the TGI (SF-539 CNS) was over 10 µM. The TGI (SK-MEL-2 melanoma) was over 10 µM, the TGI (SK-MEL-28 melanoma) was over 10 µM and the TGI (SK-MEL-5 melanoma) was over 10 µM. The TGI (SK-OV-3 ovarian) was over 10 µM, the TGI (SN12C renal) was over 10 µM and the TGI (SNB-19 CNS) was over 10 µM. It also gave a TGI (SNB-75 CNS) of over 10 µM, a TGI (SR leukemia) of over 10 µM and a TGI (SW-620 colon) of over 10 µM. The TGI (T-47D breast) was over 10 µM, the TGI (TK-10 renal) was over 10 µM and the TGI (U251 CNS) was over 10 µM. For the same molecule, the TGI (UACC-257 melanoma) was over 10 µM, the TGI (UACC-62 melanoma) was over 10 µM and the TGI (UO-31 renal) was over 10 µM.
`Cc1ccc(S(=O)(=O)N2CCCN(S(=O)(=O)c3ccc(C)cc3)CC2)cc1` was tested, and the TGI (A498 renal) was 69.2 µM, the TGI (ACHN renal) was over 100 µM and the TGI (CCRF-CEM leukemia) was over 100 µM. It also gave a TGI (COLO 205 colon) of over 100 µM, a TGI (DU-145 prostate) of over 100 µM and a TGI (HCC-2998 colon) of over 100 µM. For the same molecule, the TGI (HCT-116 colon) was over 100 µM, the TGI (HCT-15 colon) was over 100 µM and the TGI (HOP-92 NSCLC) was over 100 µM. The TGI (HS 578T breast) was over 100 µM, the TGI (HT29 colon) was over 100 µM and the TGI (K-562 leukemia) was over 100 µM. The TGI (KM12 colon) was over 100 µM, the TGI (M14 melanoma) was over 100 µM and the TGI (MCF7 breast) was over 100 µM. The TGI (MDA-MB-231 breast) was over 100 µM, the TGI (MDA-MB-435) was over 100 µM and the TGI (MDA-N) was over 100 µM. It also gave a TGI (MOLT-4 leukemia) of over 100 µM, a TGI (NCI-H226 lung) of over 100 µM and a TGI (NCI-H23 lung) of over 100 µM. It also gave a TGI (NCI-H460 lung) of over 100 µM, a TGI (NCI-H522 lung) of over 100 µM and a TGI (NCI/ADR-RES ovarian) of over 100 µM. The TGI (OVCAR-3 ovarian) was over 100 µM, the TGI (OVCAR-4 ovarian) was over 100 µM and the TGI (OVCAR-8 ovarian) was over 100 µM. The TGI (PC-3 prostate) was over 100 µM, the TGI (RXF 393 renal) was over 100 µM and the TGI (SF-268 CNS) was over 100 µM. For the same molecule, the TGI (SF-295 CNS) was over 100 µM, the TGI (SK-MEL-28 melanoma) was over 100 µM and the TGI (SK-MEL-5 melanoma) was over 100 µM. It also gave a TGI (SN12C renal) of over 100 µM, a TGI (SNB-19 CNS) of over 100 µM and a TGI (SNB-75 CNS) of over 100 µM. The TGI (SR leukemia) was over 100 µM, the TGI (SW-620 colon) was over 100 µM and the TGI (T-47D breast) was over 100 µM. The TGI (TK-10 renal) was over 100 µM, the TGI (U251 CNS) was over 100 µM and the TGI (UACC-257 melanoma) was over 100 µM. For the same molecule, the TGI (UO-31 renal) was over 100 µM.
`c1ccc(C[n+]2ccc3c(c2)CCCC3)cc1` was tested, and the TGI (786-0 renal) was over 100 µM, the TGI (A549 NSCLC) was over 100 µM and the TGI (ACHN renal) was over 100 µM. The TGI (CAKI-1 renal) was over 100 µM, the TGI (CCRF-CEM leukemia) was over 100 µM and the TGI (COLO 205 colon) was over 100 µM. It also gave a TGI (DU-145 prostate) of over 100 µM, a TGI (EKVX NSCLC) of 85.8 µM and a TGI (HCC-2998 colon) of over 100 µM. It also gave a TGI (HCT-116 colon) of over 100 µM, a TGI (HCT-15 colon) of over 100 µM and a TGI (HL-60(TB) leukemia) of over 100 µM. It also gave a TGI (HOP-62 NSCLC) of over 100 µM, a TGI (HOP-92 NSCLC) of over 100 µM and a TGI (HS 578T breast) of over 100 µM. It also gave a TGI (HT29 colon) of over 100 µM, a TGI (IGROV1 ovarian) of over 100 µM and a TGI (K-562 leukemia) of over 100 µM. For the same molecule, the TGI (KM12 colon) was over 100 µM, the TGI (LOX IMVI melanoma) was over 100 µM and the TGI (M14 melanoma) was over 100 µM. For the same molecule, the TGI (MALME-3M melanoma) was over 100 µM, the TGI (MCF7 breast) was over 100 µM and the TGI (MDA-MB-231 breast) was over 100 µM. The TGI (MDA-MB-435) was over 100 µM, the TGI (MDA-N) was over 100 µM and the TGI (MOLT-4 leukemia) was over 100 µM. The TGI (NCI-H226 lung) was over 100 µM, the TGI (NCI-H23 lung) was over 100 µM and the TGI (NCI-H460 lung) was over 100 µM. For the same molecule, the TGI (NCI/ADR-RES ovarian) was over 100 µM, the TGI (OVCAR-3 ovarian) was over 100 µM and the TGI (OVCAR-4 ovarian) was over 100 µM. For the same molecule, the TGI (OVCAR-5 ovarian) was over 100 µM, the TGI (OVCAR-8 ovarian) was over 100 µM and the TGI (PC-3 prostate) was over 100 µM. For the same molecule, the TGI (RPMI-8226 leukemia) was over 100 µM, the TGI (RXF 393 renal) was over 100 µM and the TGI (SF-268 CNS) was over 100 µM. The TGI (SF-295 CNS) was over 100 µM, the TGI (SF-539 CNS) was over 100 µM and the TGI (SK-MEL-2 melanoma) was over 100 µM. For the same molecule, the TGI (SK-MEL-28 melanoma) was over 100 µM, the TGI (SK-MEL-5 melanoma) was over 100 µM and the TGI (SK-OV-3 ovarian) was over 100 µM. The TGI (SN12C renal) was over 100 µM, the TGI (SNB-19 CNS) was over 100 µM and the TGI (SNB-75 CNS) was over 100 µM. It also gave a TGI (SR leukemia) of over 100 µM, a TGI (SW-620 colon) of over 100 µM and a TGI (T-47D breast) of over 100 µM. It also gave a TGI (TK-10 renal) of over 100 µM, a TGI (U251 CNS) of over 100 µM and a TGI (UACC-257 melanoma) of over 100 µM. For the same molecule, the TGI (UACC-62 melanoma) was over 100 µM and the TGI (UO-31 renal) was over 100 µM.
